Like-named read-outs stand apart in the source and are kept apart here.
Key:
Experiment in all cases: biochemical
Assay type in all cases: binding
[1] = biological target: cellular kinases of SH-SY5Y cells (Homo sapiens, UniProt P31749); settings: 2µM; SH-SY5Y cells; Labeling Site ATP Loop; GTFGKVILVK; read-out: KiNativ in-cell binding, % Inhibition, AKT1
Excerpt: (§1) As KINOMEscan is an in vitro assay, and as different cell types have variable kinase expression profiles we sought to determine the kinase binding profile in our SH-SY5Y TFEB-relocalization cell model. […] Bound kinases were pulled down and analyzed by mass spectrometry to determine the in situ kinase binding profile for each compound.

[2] = biological target: cellular kinases of SH-SY5Y cells (Homo sapiens, UniProt P29317); settings: 2µM; SH-SY5Y cells; Labeling Site Activation Loop; VLEDDPEATYTTSGGKIPIR; read-out: KiNativ in-cell binding, % Inhibition, EphA2
Excerpt: as §1

[3] = biological target: T1, cellular kinases of SH-SY5Y cells (Homo sapiens, UniProt O60307); settings: 2µM; SH-SY5Y cells; Labeling Site Lys2; DLKPDNLLITSLGHIK; read-out: KiNativ in-cell binding, % Inhibition, MAST3
T1 construct: endogenous in cells; host or cells: SH-SY5Y
Excerpt: as §1

[4] = biological target: T2, cellular kinases of SH-SY5Y cells (Homo sapiens, UniProt Q13233); settings: 2µM; SH-SY5Y cells; Labeling Site Lys2; DVKGANLLIDSTGQR; read-out: KiNativ in-cell binding, % Inhibition, MAP3K1
T2 construct: endogenous in cells; host or cells: SH-SY5Y
Excerpt: as §1

[5] = biological target: T3, cellular kinases of SH-SY5Y cells (Homo sapiens, UniProt Q96BR1); settings: 2µM; SH-SY5Y cells; Labeling Site Lys1; FYAVKVLQK; read-out: KiNativ in-cell binding, % Inhibition, SGK3
T3 construct: endogenous in cells; host or cells: SH-SY5Y
Excerpt: as §1

[6] = biological target: T4, cellular kinases of SH-SY5Y cells (Homo sapiens, UniProt Q9Y4K4); settings: 2µM, SH-SY5Y cells, read-out: KiNativ in-cell binding, % Inhibition, MAP4K5
T4 construct: endogenous in cells; host or cells: SH-SY5Y
Excerpt: as §1

[7] = biological target: T5, cellular kinases of SH-SY5Y cells (Homo sapiens, UniProt Q14004); settings: read-out: KiNativ in-cell binding, % Inhibition, CDK13/CHED
T5 construct: endogenous in cells; host or cells: SH-SY5Y
Excerpt: as §1

[8] = biological target: T6, cellular kinases of SH-SY5Y cells (Homo sapiens, UniProt Q15208); settings: 2µM, SH-SY5Y cells, read-out: KiNativ in-cell binding, % Inhibition, STK38/NDR1
T6 construct: endogenous in cells; host or cells: SH-SY5Y
Excerpt: as §1

[9] = biological target: cellular kinases of SH-SY5Y cells (Homo sapiens, UniProt O43318); settings: 2µM; SH-SY5Y cells; Labeling Site Lys2; DLKPPNLLLVAGGTVLK; read-out: KiNativ in-cell binding, % Inhibition, MAP3K7
Excerpt: as §1

[10] = biological target: T7, cellular kinases of SH-SY5Y cells (Homo sapiens, UniProt O15111); settings: 2µM; SH-SY5Y cells; Labeling Site Lys2; DLKPENIVLQDVGGK; read-out: KiNativ in-cell binding, % Inhibition, CHUK/IKKa
T7 construct: endogenous in cells; host or cells: SH-SY5Y
Excerpt: as §1

[11] = biological target: T8, cellular kinases of SH-SY5Y cells (Homo sapiens, UniProt Q9UBF8); settings: 2µM, SH-SY5Y cells, Labeling Site ATP, read-out: KiNativ in-cell binding, % Inhibition, PI4KB
T8 construct: endogenous in cells; host or cells: SH-SY5Y
Excerpt: as §1

[12] = biological target: cellular kinases of SH-SY5Y cells (Homo sapiens, UniProt P48736); settings: 2µM; SH-SY5Y cells; Labeling Site ATP; KKPLWLEFK; read-out: KiNativ in-cell binding, % Inhibition, PIK3CG
Excerpt: as §1

[13] = biological target: T9, cellular kinases of SH-SY5Y cells (Homo sapiens, UniProt Q58A45); settings: 2µM, SH-SY5Y cells, labeling site ATP
T9 construct: endogenous in cells; host or cells: SH-SY5Y
Excerpt: as §1

[14] = biological target: cellular kinases of SH-SY5Y cells (Homo sapiens, UniProt Q9HCP0); settings: 2µM; SH-SY5Y cells; Labeling Site Lys2; DVKPENFLIGR; read-out: KiNativ in-cell binding, % Inhibition, CK1g1
Excerpt: as §1

[15] = biological target: T10, cellular kinases of SH-SY5Y cells (Homo sapiens, UniProt Q52WX2); settings: 2µM; SH-SY5Y cells; Labeling Site Lys2; DIKPENVLLFDR; read-out: KiNativ in-cell binding, % Inhibition, SBK1/SBK
T10 construct: endogenous in cells; host or cells: SH-SY5Y
Excerpt: as §1

[16] = biological target: cellular kinases of SH-SY5Y cells (Homo sapiens, UniProt P50750); settings: 2µM, SH-SY5Y cells, read-out: KiNativ in-cell binding, % Inhibition, CDK9
Excerpt: as §1

[17] = biological target: T11, cellular kinases of SH-SY5Y cells (Homo sapiens, UniProt P78356); settings: 2µM; SH-SY5Y cells; Labeling Site ATP; AKDLPTFKDNDFLNEGQK; read-out: KiNativ in-cell binding, % Inhibition, PIP4K2B
T11 construct: endogenous in cells; host or cells: SH-SY5Y
Excerpt: as §1

[18] = biological target: T12, cellular kinases of SH-SY5Y cells (Homo sapiens, UniProt Q00537); settings: 2µM; SH-SY5Y cells; Labeling Site Lys2; DLKPQNLLINEK; read-out: KiNativ in-cell binding, % Inhibition, CDK17/PCTAIRE2
T12 construct: endogenous in cells; host or cells: SH-SY5Y
Excerpt: as §1

[19] = biological target: T13, cellular kinases of SH-SY5Y cells (Homo sapiens, UniProt O75063); settings: 2µM; SH-SY5Y cells; Labeling Site ATP; ETEPACADGDIMEGSVTLWLPDVWPLQKHR; read-out: KiNativ in-cell binding, % Inhibition, FAM20B
T13 construct: endogenous in cells; host or cells: SH-SY5Y
Excerpt: as §1

[20] = biological target: cellular kinases of SH-SY5Y cells (Homo sapiens, UniProt Q13557); settings: 2µM; SH-SY5Y cells; Labeling Site Lys1; IPTGQEYAAKIINTKK; read-out: KiNativ in-cell binding, % Inhibition, CaMK2d
Excerpt: as §1

T4 sequence (Q9Y4K4 whole entry): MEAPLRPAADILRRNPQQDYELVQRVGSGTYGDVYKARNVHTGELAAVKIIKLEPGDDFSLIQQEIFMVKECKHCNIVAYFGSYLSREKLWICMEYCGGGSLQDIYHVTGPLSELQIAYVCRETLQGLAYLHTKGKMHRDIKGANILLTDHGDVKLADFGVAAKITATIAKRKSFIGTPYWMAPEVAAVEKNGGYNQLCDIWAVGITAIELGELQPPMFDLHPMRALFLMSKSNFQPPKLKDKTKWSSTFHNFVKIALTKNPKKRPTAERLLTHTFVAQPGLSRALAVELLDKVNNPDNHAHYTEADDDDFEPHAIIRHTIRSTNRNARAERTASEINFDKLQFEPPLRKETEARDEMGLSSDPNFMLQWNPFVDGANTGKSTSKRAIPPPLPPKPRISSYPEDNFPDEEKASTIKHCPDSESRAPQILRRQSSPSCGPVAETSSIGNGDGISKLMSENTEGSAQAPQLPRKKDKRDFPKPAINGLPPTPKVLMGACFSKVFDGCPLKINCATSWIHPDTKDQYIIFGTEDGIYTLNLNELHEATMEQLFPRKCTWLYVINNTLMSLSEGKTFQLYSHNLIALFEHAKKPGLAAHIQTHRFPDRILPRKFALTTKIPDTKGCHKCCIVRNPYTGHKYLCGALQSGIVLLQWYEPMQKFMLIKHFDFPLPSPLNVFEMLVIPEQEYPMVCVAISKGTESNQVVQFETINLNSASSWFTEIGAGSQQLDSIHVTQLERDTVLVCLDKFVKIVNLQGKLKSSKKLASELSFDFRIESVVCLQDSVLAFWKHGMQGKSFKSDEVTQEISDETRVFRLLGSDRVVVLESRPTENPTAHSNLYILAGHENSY
cellular kinases of SH-SY5Y cells (Homo sapiens, UniProt P50750), sequence (P50750 whole entry): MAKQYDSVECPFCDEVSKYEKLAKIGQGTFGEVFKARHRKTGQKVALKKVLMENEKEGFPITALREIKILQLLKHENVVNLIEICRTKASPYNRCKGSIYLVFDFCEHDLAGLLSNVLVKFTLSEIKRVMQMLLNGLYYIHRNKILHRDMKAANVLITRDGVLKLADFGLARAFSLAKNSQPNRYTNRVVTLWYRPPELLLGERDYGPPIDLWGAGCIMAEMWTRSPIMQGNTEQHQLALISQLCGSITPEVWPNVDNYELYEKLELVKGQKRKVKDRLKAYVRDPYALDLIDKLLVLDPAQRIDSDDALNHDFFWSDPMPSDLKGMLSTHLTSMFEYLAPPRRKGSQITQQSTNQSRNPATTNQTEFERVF
T6 sequence (Q15208 whole entry): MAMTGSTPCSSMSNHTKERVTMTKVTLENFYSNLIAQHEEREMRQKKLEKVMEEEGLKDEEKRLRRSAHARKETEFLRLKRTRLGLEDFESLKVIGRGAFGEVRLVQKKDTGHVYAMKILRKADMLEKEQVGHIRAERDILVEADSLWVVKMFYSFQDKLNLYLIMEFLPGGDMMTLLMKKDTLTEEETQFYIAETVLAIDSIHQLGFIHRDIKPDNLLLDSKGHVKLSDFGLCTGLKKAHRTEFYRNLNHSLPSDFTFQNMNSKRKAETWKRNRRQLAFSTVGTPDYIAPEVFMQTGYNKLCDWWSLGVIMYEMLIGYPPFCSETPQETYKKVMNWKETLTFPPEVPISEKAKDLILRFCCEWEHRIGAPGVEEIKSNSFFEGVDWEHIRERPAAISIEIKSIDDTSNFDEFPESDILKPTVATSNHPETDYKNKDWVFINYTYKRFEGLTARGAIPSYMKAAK
T9 sequence (Q58A45 whole entry): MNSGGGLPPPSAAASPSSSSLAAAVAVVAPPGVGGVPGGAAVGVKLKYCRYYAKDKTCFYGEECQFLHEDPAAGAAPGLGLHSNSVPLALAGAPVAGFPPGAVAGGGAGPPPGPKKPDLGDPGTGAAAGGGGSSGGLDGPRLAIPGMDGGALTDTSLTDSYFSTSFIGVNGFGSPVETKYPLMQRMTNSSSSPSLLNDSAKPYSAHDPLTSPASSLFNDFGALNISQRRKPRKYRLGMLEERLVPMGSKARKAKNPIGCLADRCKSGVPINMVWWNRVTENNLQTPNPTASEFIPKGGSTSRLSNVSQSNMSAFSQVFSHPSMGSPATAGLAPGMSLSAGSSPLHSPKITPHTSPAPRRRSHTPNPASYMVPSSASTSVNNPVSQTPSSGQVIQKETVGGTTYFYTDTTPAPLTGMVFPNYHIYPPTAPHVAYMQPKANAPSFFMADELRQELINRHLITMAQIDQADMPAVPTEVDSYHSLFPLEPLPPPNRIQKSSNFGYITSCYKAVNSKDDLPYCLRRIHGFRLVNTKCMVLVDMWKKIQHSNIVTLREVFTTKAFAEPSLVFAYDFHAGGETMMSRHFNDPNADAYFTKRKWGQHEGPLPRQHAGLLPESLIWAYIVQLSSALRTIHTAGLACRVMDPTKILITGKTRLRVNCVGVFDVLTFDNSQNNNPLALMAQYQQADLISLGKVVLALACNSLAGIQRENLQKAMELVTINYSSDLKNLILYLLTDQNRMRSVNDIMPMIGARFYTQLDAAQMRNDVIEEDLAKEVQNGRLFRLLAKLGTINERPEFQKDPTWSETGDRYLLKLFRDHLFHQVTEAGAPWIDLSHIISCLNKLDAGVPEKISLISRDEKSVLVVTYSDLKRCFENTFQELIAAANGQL
T8 sequence (Q9UBF8 whole entry): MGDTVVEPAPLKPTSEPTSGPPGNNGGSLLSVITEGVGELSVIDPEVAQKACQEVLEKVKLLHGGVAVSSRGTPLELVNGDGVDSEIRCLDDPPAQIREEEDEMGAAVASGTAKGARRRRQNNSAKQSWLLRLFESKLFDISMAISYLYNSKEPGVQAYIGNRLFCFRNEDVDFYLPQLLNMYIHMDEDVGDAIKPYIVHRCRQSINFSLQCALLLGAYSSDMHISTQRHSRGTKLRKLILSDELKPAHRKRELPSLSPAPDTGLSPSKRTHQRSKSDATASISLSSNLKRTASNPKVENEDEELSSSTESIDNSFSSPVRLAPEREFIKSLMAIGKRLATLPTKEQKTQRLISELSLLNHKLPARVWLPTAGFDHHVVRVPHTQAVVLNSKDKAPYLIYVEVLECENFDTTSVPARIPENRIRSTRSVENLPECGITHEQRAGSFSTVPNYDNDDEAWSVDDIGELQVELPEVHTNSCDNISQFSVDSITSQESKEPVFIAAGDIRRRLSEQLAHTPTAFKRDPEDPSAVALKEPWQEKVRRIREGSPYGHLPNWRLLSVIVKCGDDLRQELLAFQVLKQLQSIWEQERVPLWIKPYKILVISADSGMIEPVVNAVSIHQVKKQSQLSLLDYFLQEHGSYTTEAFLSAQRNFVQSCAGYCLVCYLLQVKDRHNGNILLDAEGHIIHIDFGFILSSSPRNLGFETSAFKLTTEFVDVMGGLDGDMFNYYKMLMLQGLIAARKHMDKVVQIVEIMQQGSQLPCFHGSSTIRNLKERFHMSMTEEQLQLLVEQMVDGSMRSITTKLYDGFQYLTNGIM
T7 sequence (O15111 whole entry): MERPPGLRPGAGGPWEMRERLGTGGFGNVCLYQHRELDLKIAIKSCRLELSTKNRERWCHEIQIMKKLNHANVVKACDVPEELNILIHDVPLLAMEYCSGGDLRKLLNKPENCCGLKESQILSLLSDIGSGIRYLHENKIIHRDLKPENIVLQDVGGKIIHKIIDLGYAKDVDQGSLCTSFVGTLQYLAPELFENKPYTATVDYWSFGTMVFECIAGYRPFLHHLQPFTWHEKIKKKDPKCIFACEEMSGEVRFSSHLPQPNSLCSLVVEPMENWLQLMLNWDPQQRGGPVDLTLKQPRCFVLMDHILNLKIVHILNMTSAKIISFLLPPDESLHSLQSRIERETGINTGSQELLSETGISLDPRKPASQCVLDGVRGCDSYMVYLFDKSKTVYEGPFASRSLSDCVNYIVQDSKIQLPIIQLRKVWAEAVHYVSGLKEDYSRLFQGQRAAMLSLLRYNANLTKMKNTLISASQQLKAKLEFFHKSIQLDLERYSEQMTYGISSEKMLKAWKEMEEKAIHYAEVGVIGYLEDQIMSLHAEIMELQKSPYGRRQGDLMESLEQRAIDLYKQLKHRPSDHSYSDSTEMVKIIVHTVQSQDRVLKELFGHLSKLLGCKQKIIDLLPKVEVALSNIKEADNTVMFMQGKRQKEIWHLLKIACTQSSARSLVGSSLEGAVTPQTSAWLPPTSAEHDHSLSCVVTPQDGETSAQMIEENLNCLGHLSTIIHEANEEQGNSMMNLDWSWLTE
cellular kinases of SH-SY5Y cells (Homo sapiens, UniProt O43318), sequence (O43318 whole entry): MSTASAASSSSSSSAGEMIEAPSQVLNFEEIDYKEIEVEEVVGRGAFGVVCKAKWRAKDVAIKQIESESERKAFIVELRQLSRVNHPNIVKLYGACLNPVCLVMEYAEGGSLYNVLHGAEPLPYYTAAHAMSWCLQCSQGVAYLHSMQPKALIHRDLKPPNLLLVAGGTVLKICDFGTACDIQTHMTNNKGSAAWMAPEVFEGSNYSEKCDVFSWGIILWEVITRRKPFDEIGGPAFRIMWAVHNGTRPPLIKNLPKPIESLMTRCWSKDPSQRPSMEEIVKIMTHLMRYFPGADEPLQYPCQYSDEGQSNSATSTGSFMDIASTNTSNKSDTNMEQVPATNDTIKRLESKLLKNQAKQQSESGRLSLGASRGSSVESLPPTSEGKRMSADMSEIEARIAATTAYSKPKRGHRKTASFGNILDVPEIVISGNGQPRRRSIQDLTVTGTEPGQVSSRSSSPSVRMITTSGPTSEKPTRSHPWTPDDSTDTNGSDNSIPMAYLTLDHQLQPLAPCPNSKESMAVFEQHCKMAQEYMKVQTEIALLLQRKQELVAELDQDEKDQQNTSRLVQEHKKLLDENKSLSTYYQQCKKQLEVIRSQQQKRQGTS

Cc1cccc(-c2nc(Nc3ccc4ncsc4c3)c3ccccc3n2)n1 [NK140]
inhibition at 2 µM [1]: 21.9% | inhibition at 2 µM [2]: 1.2% | inhibition at 2 µM [3]: 1.2% | inhibition at 2 µM [4]: -7.7% | inhibition at 2 µM [5]: 1% | inhibition at 2 µM ([6]; Labeling Site Lys1, NVHTGELAAVKIIK): 27.4% | inhibition at 2 µM ([6]; Labeling Site Lys2, DIKGANILLTDHGDVK): 26.4% | inhibition at 2 µM [7]: -3.7% | inhibition at 2 µM ([8]; Labeling Site Lys1, DTGHVYAMKILR): -36.9% | inhibition at 2 µM ([8]; Labeling Site Lys2, DIKPDNLLLDSK): 20.9% | inhibition at 2 µM [9]: 8.7% | inhibition at 2 µM [10]: -29.6% | inhibition at 2 µM ([11]; LLSVIVKCGDDLRQELLAFQVLK): 29.7% | inhibition at 2 µM ([11]; VPHTQAVVLNSKDK): 32.3% | inhibition at 2 µM [12]: 27.6% | KiNativ in-cell binding, PAN3 ([13]; peptide IQKSSNFGYITSCYK): -119.6 | KiNativ in-cell binding, PAN3 ([13]; peptide VMDPTKILITGK): -99.0 | inhibition at 2 µM [14]: -28.2% | inhibition at 2 µM [15]: 3.5% | inhibition at 2 µM ([16]; Labeling Site ATP Loop, IGQGTFGEVFKAR): 2.1% | inhibition at 2 µM ([16]; Labeling Site Lys2, DMKAANVLITR): -6% | inhibition at 2 µM [17]: 27.3% | inhibition at 2 µM [18]: 13.2% | inhibition at 2 µM [19]: -39.2% | inhibition at 2 µM [20]: 30.5%
